Data taken from ChEMBL document CHEMBL1129112, “Antioxidant and cholesterol lowering properties of 2,6-DI-t-butyl-4-[(dimethylphenylsilyl)methyloxy]phenol and derivatives: A new class of anti-atherogenic compounds” (1996).

What was measured:
Format in all cases: functional
Oryctolagus cuniculus [1] = species on record: Oryctolagus cuniculus; assay: Total cholesterol present in New Zealand white rabbits fed with control diet (100 g/day) for seven days
Oryctolagus cuniculus [2] = assay: High density lipoprotein (HDL) percent control of cholesterol after administration in rabbits.; parameters: concentration or dose not given beside the values
Oryctolagus cuniculus [3] = assay: Low density lipoprotein (LDL) percent control of cholesterol after administration in rabbits.; parameters: concentration or dose not given beside the values
Oryctolagus cuniculus [4] = species on record: Oryctolagus cuniculus; assay: The compound was tested for antioxidant activity against serum thiobarbituric acid relative substances (TBARS),
Oryctolagus cuniculus [5] = assay: Total percent control of cholesterol after administration in rabbits.; parameters: concentration or dose not given beside the values
Oryctolagus cuniculus [6] = species on record: Oryctolagus cuniculus; assay: Tested for antioxidant activity against serum thiobarbituric acid relative substances (TBARS),

SMILES	Activity (Oryctolagus cuniculus [1])	Control (Oryctolagus cuniculus [2])	Control (Oryctolagus cuniculus [3])	Control (Oryctolagus cuniculus [4])	Control (Oryctolagus cuniculus [5])	Control (Oryctolagus cuniculus [6])
COc1ccccc1[Si](C)(C)COc1cc(C(C)(C)C)c(O)c(C(C)(C)C)c1	235 mg/dL	217%	61%	75%	77%	–
CC(C)(C)c1cc(OC[Si](C)(C)c2ccccc2)cc(C(C)(C)C)c1O	165 mg/dL	81%	69%	28%	72%	–
CC(C)(C)c1cc(OC[Si](C)(C)c2ccc(Cl)cc2)cc(C(C)(C)C)c1O	247 mg/dL	109%	89%	57%	87%	–
CC(C)(C)c1cc(SC[Si](C)(C)c2ccccc2)cc(C(C)(C)C)c1O	119 mg/dL	75%	42%	–	52%	17%
COc1ccc([Si](C)(C)COc2cc(C(C)(C)C)c(O)c(C(C)(C)C)c2)cc1	153 mg/dL	123%	66%	60%	54%	–
